Where two headings read alike, the source gives them in different places. Marks after values point to notes of the source that are not given here.
Columns and labels:
[1] = system: Micrococcus lysodeikticus ATTC No. 4698; assay: Lysozyme activity turbidity assay (optical density drop); conditions: pH 6
[2] = system: Exiguobacterium undae (DSM14481); assay: as above; type: biochemical; conditions: pH 6
[3] = system: Clostridium perfringens DSM756; type: cell-based; conditions: for Diameter of clearing zone: lysozymes 100 μg/ml, bacitracin 50 μg/ml
[4] = In vivo broiler trial 3, growth performance; design: species or system male broiler chickens; Motality: unit not given here
Protocol: The in vivo trial was carried out as described in example 7, except the feed was supplemented with the GH25 lysozyme (SEQ ID NO: 1) at 12.5 or 25 mg per kg feed, the GH24 lysozyme (SEQ ID NO: 4) at 12.5 or 25 mg per kg feed or with Avilamycin at an inclusion level of 10 mg/kg. No additional enzymes (e.g. phytase) were added to the feed. The experimental diets (Starter, Grower and Finisher) were based on soybean meal, wheat and rye (12%) as main ingredients (Table 8). The diets were formulated to contain 225 g crude protein and 12.5 MJ/kg MEN for the starter period, 215 g crude protein and 12.8 MJ/kg MEN for the grower period and 205 g crude protein and 13.0 MJ/kg MEN for the finisher period.

[5] = In vivo broiler trial 2, growth performance; design: species or system male broiler chickens; conditions: for FCR / FCR, Relative to C (%) / Feed intake / Feed intake, Relative to C (%) / Weight gain / Weight gain, Relative to C (%): 10 mg/kg feed; for Improvement of FCR compared to the control diet / Improvement of weight gain compared to the control diet: 10 mg/kg
Protocol: No additional enzymes (e.g. phytase) were added to the feed. The experimental diets (Starter and Grower) were based on soybean meal, wheat and rye (12%) as main ingredients (Table 6). The diets were formulated to contain 222 g crude protein and 12.5 MJ/kg MEN for the starter period and 204 g crude protein and 12.7 MJ/kg MEN for the grower period.

[6] = In vivo broiler trial 1, growth performance; design: species or system male broiler chickens (ROSS PM3); conditions: for Improvement of FCR compared to the control diet / Improvement of weight gain compared to the control diet: 10 mg/kg; for FCR / FCR, Relative to C (%) / Feed intake / Feed intake, Relative to C (%) / Weight gain / Weight gain, Relative to C (%): 10 mg/kg feed
[7] = In vivo piglet trial, growth performance; design: species or system weaned piglets
Protocol: The trial was performed from Oct. 23 to Dec. 4, 2014 at the Research Center for Animal Nutrition (DSM Nutritional Products France, F-68305 Village-Neuf) according to the official French guidelines for experiments with live animals. One hundred and four castrated male crossbred (Large-White (female)×Redon (male)) weaned piglets having 28 days of age supplied by the commercial farm “[…] du Rhin” located in Balgau (France), were used in a 42-day experiment. The initial bodyweight of the piglets was 7.88±0.675 kg. They were sorted by body weight into 32 groups of 3 or 4 piglets and randomly allotted to each dietary treatment. Each group of animals was placed in one flat-deck cages and allocated to one of the different treatments. Each treatment was replicated with 8 cages using a total of 26 animals (6 cages of 3 animals/treatment and 2 cages of 4 animals/treatment) per treatment. […] Animals were housed in an environmentally controlled room. Room temperature was initially 27° C. and was lowered weekly by about 2° C. until 21-22° C. and relative humidity percentage was 50%. The experimental diets (Pre-Starter and Starter) were fed ad libitum in two feeding phases from day 0 to 14 (phase 1, Pre-starter) and day 14 to 42 (phase 2, Starter). The ingredient composition and the calculated nutrient levels of the experimental diets for phases 1 and 2 are presented in table 11. Both diets were formulated to meet the animals' requirements according NRC (2012) and were fed in pelleted form. Pelleting conditions were at 70° C. for 30 seconds. […] No additional enzymes (e.g. phytase) were added to the feed. […] Appropriate amount of the liquid preparations of lysozyme was diluted in water and sprayed onto the respective pelleted feed to get the final concentrations in the feed corresponding to the different treatments. For procedural balance of all treatments the same volume of water were also sprayed onto the pellets of the control diets. Body weight of the individual animals and feed consumption per pen were recorded on days 14 and 42 of the study. […] The experimental unit was the piglet, except for ADFI and FCR which were measured by cage, and in both cases, treatment was used as class variable. One-factorial ANOVA and Student-Newman-Keuls test was used to assess differences among means in treatment groups.

[8] = Finisher (d 36-42), 10 mg/kg feed
[9] = Grower (d 22-36), 10 mg/kg feed
[10] = Starter (d 1-22), 10 mg/kg feed
[11] = Whole period (d 1-42), 10 mg/kg feed

SEQ ID NO: 5: mature amino acid sequence of a wild type GH22 lysozyme from Gallus gallus (hen egg white lysozyme), Sigma 62971 [reference compound]
Lysozyme activity as measured by Optical Density Drop [1]: +++ (pH 6) | Lysozyme activity as measured by Optical Density Drop [2]: + (pH 6) | Inhibition zone ([3]; 1/10 MHB, pH7, both experiments): 9-11 mm | Diameter of clearing zone ([3]; Experiment 1, 1/2 MHB pH 6): 0 mm | Diameter of clearing zone ([3]; Experiment 1, 1/10 MHB pH 7): 11 mm | Diameter of clearing zone ([3]; Experiment 2, 1/2 MHB pH 6): 0 mm | Diameter of clearing zone ([3]; Experiment 2, 1/10 MHB pH 7): 9 mm | Clearing zone diameter ([3]; ½ MHB, pH 6, both experiments): no zone of inhibition

COC[C@H]1O[C@@H](OC2OC[C@@H]3O[C@]4(O[C@H]3[C@H]2OC(=O)C(C)C)O[C@H](C)[C@@](O)(C(C)=O)[C@@H]2OCO[C@H]24)[C@@H](OC)[C@@H](O)[C@@H]1O[C@@H]1O[C@H](C)[C@H](OC)[C@H](O[C@H]2C[C@@]3(C)OC4(C[C@@H](O)[C@H](O[C@H]5C[C@@H](O)[C@H](OC(=O)c6c(C)c(Cl)c(O)c(Cl)c6OC)[C@@H](C)O5)[C@@H](C)O4)O[C@@H]3[C@@H](C)O2)[C@H]1O (stereo partly drawn) [Avilamycin, reference compound]
FCR [4, 8]: 1.982 | FCR, Relative to C (%) [4, 8]: 101.1% | Feed intake [4, 8]: 1460 g/b | Feed intake, Relative to C (%) [4, 8]: 98.2% | Weight gain [4, 8]: 738 g/b | Weight gain, Relative to C (%) [4, 8]: 97.0% | FCR [4, 9]: 1.683 | FCR, Relative to C (%) [4, 9]: 97.7% | Feed intake [4, 9]: 2242 g/b | Feed intake, Relative to C (%) [4, 9]: 98.1% | Weight gain [4, 9]: 1334 g/b | Weight gain, Relative to C (%) [4, 9]: 100.4% | FCR [4, 10]: 1.452 | FCR, Relative to C (%) [4, 10]: 100.8% | Feed intake [4, 10]: 1593 g/b | Feed intake, Relative to C (%) [4, 10]: 101.0% | Weight gain [4, 10]: 1102 g/b | Weight gain, Relative to C (%) [4, 10]: 100.6% | EPEF [4, 11]: 397 | EPEF, Relative to C (%) [4, 11]: 95.0% | FCR [4, 11]: 1.669 | FCR, Relative to C (%) [4, 11]: 99.3% | Feed intake [4, 11]: 5312 g/b | Feed intake, Relative to C (%) [4, 11]: 99.3% | Motality [4, 11]: 12.5 | Weight gain [4, 11]: 3184 g/b | Weight gain, Relative to C (%) [4, 11]: 99.9% | EPEF worse than NC diet by ([4]; whole period, 10 mg/kg): 5.0% | FCR improvement compared to NC diet ([4]; whole period, 10 mg/kg): 0.7% | FCR ([5]; Grower (d 22-36)): 1.621^b | FCR, Relative to C (%) ([5]; Grower (d 22-36)): 94.2% | Feed intake ([5]; Grower (d 22-36)): 2599 g/b | Feed intake, Relative to C (%) ([5]; Grower (d 22-36)): 95.2% | Weight gain ([5]; Grower (d 22-36)): 1605 g/b | Weight gain, Relative to C (%) ([5]; Grower (d 22-36)): 101.2% | FCR ([5]; Starter (d 1-22)): 1.421^a | FCR, Relative to C (%) ([5]; Starter (d 1-22)): 103% | Feed intake ([5]; Starter (d 1-22)): 1517^a g/b | Feed intake, Relative to C (%) ([5]; Starter (d 1-22)): 103.1% | Weight gain ([5]; Starter (d 1-22)): 1070 g/b | Weight gain, Relative to C (%) ([5]; Starter (d 1-22)): 100.2% | FCR ([5]; Whole period (d 1-36)): 1.537^c | FCR, Relative to C (%) ([5]; Whole period (d 1-36)): 97.4% | Feed intake ([5]; Whole period (d 1-36)): 4111 g/b | Feed intake, Relative to C (%) ([5]; Whole period (d 1-36)): 98.1% | Weight gain ([5]; Whole period (d 1-36)): 2675 g/b | Weight gain, Relative to C (%) ([5]; Whole period (d 1-36)): 100.8% | Improvement of FCR compared to the control diet ([5]; day 1 to day 36): 2.6% | Improvement of FCR compared to the control diet ([5]; grower period): 5.8% | Improvement of weight gain compared to the control diet ([5]; grower period): 1.2% | Improvement of FCR compared to the control diet ([5]; starter period): No improvement | Improvement of weight gain compared to the control diet ([5]; starter period): No improvement | Improvement of FCR compared to the control diet [6]: 2.3% | FCR ([6]; Grower (d 22-36)): 1.694^abc | FCR, Relative to C (%) ([6]; Grower (d 22-36)): 97.7% | Feed intake ([6]; Grower (d 22-36)): 2976^ab g/b | Feed intake, Relative to C (%) ([6]; Grower (d 22-36)): 97.6% | Weight gain ([6]; Grower (d 22-36)): 1757 g/b | Weight gain, Relative to C (%) ([6]; Grower (d 22-36)): 99.8% | FCR ([6]; Starter (d 1-22)): 1.695^c | FCR, Relative to C (%) ([6]; Starter (d 1-22)): 93.3% | Feed intake ([6]; Starter (d 1-22)): 1943 g/b | Feed intake, Relative to C (%) ([6]; Starter (d 1-22)): 97.4% | Weight gain ([6]; Starter (d 1-22)): 1147 g/b | Weight gain, Relative to C (%) ([6]; Starter (d 1-22)): 104.1% | FCR ([6]; Whole period (d 1-36)): 1.694^bc | FCR, Relative to C (%) ([6]; Whole period (d 1-36)): 96% | Feed intake ([6]; Whole period (d 1-36)): 4918^ab g/b | Feed intake, Relative to C (%) ([6]; Whole period (d 1-36)): 97.5% | Weight gain ([6]; Whole period (d 1-36)): 2903 g/b | Weight gain, Relative to C (%) ([6]; Whole period (d 1-36)): 101.5% | Improvement of FCR compared to the control diet ([6]; day 1 to day 36): 4% | Improvement of weight gain compared to the control diet ([6]; day 1 to day 36): 1.5% | Improvement of weight gain compared to the control diet ([6]; starter period): 4.1%

Bacitracin zinc salt [reference compound]
Diameter of clearing zone ([3]; Experiment 1, 1/2 MHB pH 6): 13 mm | Diameter of clearing zone ([3]; Experiment 1, 1/10 MHB pH 7): 23 mm | Diameter of clearing zone ([3]; Experiment 2, 1/2 MHB pH 6): 11 mm | Diameter of clearing zone ([3]; Experiment 2, 1/10 MHB pH 7): 20 mm

O=C(O)c1ccccc1 [VevoVital, benzoic acid]
ADFI, % relative NC ([7]; day 0-14, 5000 mg/kg feed): 98.6% | ADFI, Mean ([7]; day 0-14, 5000 mg/kg feed): 355 g/day | ADWG, % relative NC ([7]; day 0-14, 5000 mg/kg feed): 104.8% | ADWG, Mean ([7]; day 0-14, 5000 mg/kg feed): 304 g/day | FCR, % relative NC ([7]; day 0-14, 5000 mg/kg feed): 94.2% | FCR, Mean ([7]; day 0-14, 5000 mg/kg feed): 1.168^a | ADFI, % relative NC ([7]; day 0-42, 5000 mg/kg feed): 96.6% | ADFI, Mean ([7]; day 0-42, 5000 mg/kg feed): 709^ab g/d | ADWG, % relative NC ([7]; day 0-42, 5000 mg/kg feed): 105.4% | ADWG, Mean ([7]; day 0-42, 5000 mg/kg feed): 526 g/day | EPEF, % relative NC ([7]; day 0-42, 5000 mg/kg feed): 116.2% | EPEF, Mean ([7]; day 0-42, 5000 mg/kg feed): 394 | FCR, % relative NC ([7]; day 0-42, 5000 mg/kg feed): 90.4% | FCR, Mean ([7]; day 0-42, 5000 mg/kg feed): 1.342^a | ADFI, % relative NC ([7]; day 14-42, 5000 mg/kg feed): 95.3% | ADFI, Mean ([7]; day 14-42, 5000 mg/kg feed): 886^ab g/d | ADWG, % relative NC ([7]; day 14-42, 5000 mg/kg feed): 105.8% | ADWG, Mean ([7]; day 14-42, 5000 mg/kg feed): 638 g/day | FCR, % relative NC ([7]; day 14-42, 5000 mg/kg feed): 90.5% | FCR, Mean ([7]; day 14-42, 5000 mg/kg feed): 1.398^a | Improvement on FCR compared to the negative control ([7]; overall period (day 0 to day 42), 5000 mg/kg): 9.6% | Improvement of ADWG compared to NC ([7]; pre-starter period, 5000 mg/kg): 4.8% | Improvement to FCR compared to NC ([7]; starter period, day 15 to day 42, 5000 mg/kg): 9.5% | Improvement of ADWG compared to NC ([7]; starter period, 5000 mg/kg): 5.8% | Improvement of ADWG compared to NC ([7]; whole period, 5000 mg/kg): 5.4%
